# Source: patent publication US9096504B2, “Controlled chemical release of hydrogen sulfide” (Washington State University, priority 2010, dated 2015)
# How the values were obtained:
# [1] = Methylene blue experiment for H2S release in PBS buffer in presence of cysteine or GSH; assay type: physicochemical; settings: for GSH Peaking time / GSH [H2S] at peaking time / Cys Peaking time / Cys [H2S] at peaking time: PBS buffer pH 7.4, donor 150 μM; for GSH Peaking time / GSH [H2S] at peaking time: 1.5 mM GSH, experimental period 3 hours; for Cys Peaking time / Cys [H2S] at peaking time: 1.5 mM cysteine; for GSH Peaking time (min) / GSH [H2S] at peaking time (μM) / Cys Peaking time (min) / Cys [H2S] at peaking time (μM): footnote a: donors 40 μM and cysteine 4.0 mM
# Description: Na2S Standard Curve for H2S Release
# 2.0 mM Na2S stock solution was prepared as described in previous section. Five aliquots of Na2S solution at 3.75 μL, 7.50 μL, 15.0 μL, 45.0 μL, and 112.5 μl were injected into the 4-mL vials containing H2O (1.0 mL), zinc acetate (1% w/v, 100 μL), N,N-dimethyl-1,4-phenylenediamine sulfate (200 μL, 20 mM) in 7.2 M HCl and ferric chloride (200 μL, 30 mM) in 1.2 M HCl, respectively. Stir the resultant solution for 15 minutes at room temperature. The absorbance (670 nm) of aliquots was determined using a UV-Vis spectrometer.
# Cysteine stock solution in H2O (400 mM, 112.5 μL) and N-(benzoylthio)benzamide 2 stock solution in THF (40 mM, 112.5 μL) were added into PBS buffer solution (30 mL, pH=7.4) containing EDTA (50 mM, 60 μL), respectively. Every 3 minute, 1.0 mL of aliquots were taken to 4-mL vials containing, zinc acetate (1% w/v, 100 μL), N,N-dimethyl-1,4-phenylenediamine sulfate (200 μL, 20 mM) in 7.2 M HCl and ferric chloride (200 μL, 30 mM) in 1.2 M HCl within 3 hours. Then the absorbance (670 nm) was determined using a UV-Vis spectrometer.
# The initial concentrations of H2S-donors shown below were 150 μM and the detection of H2S released from these molecules was measured in presence of 1.5 mM of cysteine or GSH, unless otherwise indicated.
# [2] = tested on: mice subjected to ischemia followed by reperfusion; test: Mouse model of ischemia followed by reperfusion (Elrod et al.); assay type: in vivo; settings: compared to vehicle treated mice
# Description: The effects of compound 2 have been tested using the mouse model of Elrod et al. (Proc. Natl. Acad. Sci. USA 2007, 104, 15560). Briefly, mice were subjected to ischemia followed by reperfusion. During reperfusion, compound 2 was administered to the mice.
# [3] = H2S release measurement in plasma (colorimetry method); assay type: in vitro ADME, bovine/calf; settings: plasma containing ~500 μM cysteine
# Description: It is known that plasma contains significant amount of free cysteine. We therefore measured H2S generation of 2-13 in plasma (containing ˜500 μM cysteine) using a colorimetry method.
# To 0.5 mL of bovine/calf plasma was added […] containing zinc acetate (1% w/v, 100 μL) and trichloroacetic acid (10% w/v, 600 μL). The mixture was allowed to centrifuge for 10 min (5000 g). The precipitate was filtered out and 1.2 mL of the clear solution was transferred into a 2-mL vial containing N,N-dimethyl-1,4-phenylenediamine sulfate (150 μL, 20 mM) in 7.2 M HCl and ferric chloride (150 μL, 30 mM) in 1.2 M HCl. […] The absorbance (670 nm) of aliquots of the resulting solution (1.5 mL) was determined using a UV-VIS spectrometer. The concentration of MB^+ was then converted to the concentration of H2S according to the reaction equation shown above and the calibration curve was generated by plotting the absorbance versus [H2S].
# To 2.0 mL of bovine/calf plasma (containing cysteine […]) was added 2 mL water solution containing 5a (25 μl, of 80 mM in DMSO). […] Subsequently, N,N-dimethyl-p-phenylenediamine sulfate (20 mM, 150 μL) in 7.2 M HCl was added followed by FeCl3 (30 mM, 150 μL) in 1.2 M HCl, and absorbance (670 nm) of aliquots of the resulting solution (1.5 mL) was determined 20 minutes thereafter using a UV-Vis spectrometer.
SMILES,GSH [H2S] at peaking time [1] [µM],Cys [H2S] at peaking time [1] [µM],GSH Peaking time [1] [min],Cys Peaking time [1] [min],other results
O=C(NSC(=O)c1ccc(F)cc1)c1ccccc1 [Compound 3],122.6,143.1,36,18,–
O=C(NSC(=O)c1ccc(C(F)(F)F)cc1)c1ccccc1 [Compound 4],59.5,110.0,27,26,–
COc1cccc(C(=O)SNC(=O)c2ccccc2)c1 [Compound 10],133.6,111.6,20,25,–
COc1ccc(C(=O)SNC(=O)c2ccccc2)cc1 [Compound 11],100.5,92.4,40,27,–
COc1ccc(C(=O)SNC(=O)c2ccccc2)c(OC)c1 [Compound 12],–,–,–,–,GSH Peaking time (min) [1]: 120 ^a min; GSH [H2S] at peaking time (μM) [1]: 13.2 ^a μM; Cys Peaking time (min) [1]: 50 ^a min; Cys [H2S] at peaking time (μM) [1]: 23.0 ^a μM
CN(C)c1ccc(C(=O)SNC(=O)c2ccccc2)cc1 [Compound 13],–,–,–,–,GSH Peaking time (min) [1]: 30 ^a min; GSH [H2S] at peaking time (μM) [1]: 15.0 ^a μM; Cys Peaking time (min) [1]: 22 ^a min; Cys [H2S] at peaking time (μM) [1]: 17.5 ^a μM
O=C(NSC(=O)C1CCCCC1)c1ccccc1 [Compound 16],81.9,72.4,36,18,–
O=C(NSC(=O)C1CCCC1)c1ccccc1 [Compound 17],110.9,100.6,32,18,–
CC(C)C(=O)SNC(=O)c1ccccc1 [Compound 18],101.1,131.6,52,36,–
CC(=O)SNC(=O)c1ccccc1 [Compound 19],116.1,132.6,18,12,–
CCC(=O)SNC(=O)c1ccccc1 [Compound 20],103.6,106.1,35,28,–
CC(C)(C)C(=O)SNC(=O)c1ccccc1 [Compound 21],96.6,106.4,90,55,–
CCCC(=O)SNC(=O)c1ccccc1 [Compound 22],122.3,111.3,40,39,–
CC(=O)NSC(=O)c1ccccc1 [Compound 27],149.6,145.4,39,30,–
CCC(=O)NSC(=O)c1ccccc1 [Compound 28],116.6,120.9,50,34,–
CCCC(=O)NSC(=O)c1ccccc1 [Compound 29],98.9,102.8,39,30,–
O=C(Cc1ccccc1)SNC(=O)c1ccccc1 [Compound 30],104.9,108.6,44,30,–
CC(C(=O)SNC(=O)c1ccccc1)c1ccccc1 (stereo not drawn) [Compound 31],103.8,130.4,52,36,–
O=C(NSC(=O)C(c1ccccc1)c1ccccc1)c1ccccc1 [Compound 32],–,45.6,–,60,–
COC(=O)C(CSSC(=O)c1ccccc1)NC(=O)c1ccccc1 (stereo not drawn) [Compound 33],18.3,25.8,45,35,–
CC(=O)NC(C(=O)NCc1ccccc1)C(C)(C)SSC(=O)c1ccccc1 (stereo not drawn) [Compound 34],137,149,39,33,melting point: 143 to 145 °C

# More lines, main results first:
GSH [H2S] at peaking time [1] [µM],Cys [H2S] at peaking time [1] [µM],SMILES,GSH Peaking time [1] [min],Cys Peaking time [1] [min],other results
23.4,33.9,O=C(NSC(=O)c1ccccc1)Nc1ccccc1,30,15,–
140.4,143.6,"O=C(NSC(=O)c1ccccc1)c1ccccc1 [Compound 2, N-(benzoylthio)benzamide]",39,24,"reduction in infarct size per area-at-risk (INF/AAR) ([2]; 100 μg/kg bolus during reperfusion, maximal): 40%; infarct size per area-at-risk (INF/AAR), dose dependence ([2]; administered during reperfusion): dose-dependent reduction; H2S generation in plasma [3]: time-dependent H2S release"
146.5,142.1,O=C(NSC(=O)c1cccc(Cl)c1)c1ccccc1 [Compound 5],36,24,–
61.9,85.0,Cc1ccccc1C(=O)SNC(=O)c1ccccc1 [Compound 6],45,34,–
131.0,141.8,Cc1cccc(C(=O)SNC(=O)c2ccccc2)c1 [Compound 7],39,28,–
100.3,93.9,Cc1ccc(C(=O)SNC(=O)c2ccccc2)cc1 [Compound 8],30,27,–
48.3,52.8,COc1ccccc1C(=O)SNC(=O)c1ccccc1 [Compound 9],48,36,–
130.5,146.9,Cc1ccccc1C(=O)NSC(=O)c1ccccc1 [Compound 24],30,24,–
84.3,83.6,O=C(NSC(=O)c1ccccc1)c1cccc(Cl)c1 [Compound 25],27,26,–
104.1,110.6,O=C(NSC(=O)c1ccccc1)c1ccc(F)cc1 [Compound 26],42,34,–
